Test results from patent US8791132B2, “Compounds and methods for treatment of hypertension” (Medivation Technologies, Inc., priority 2011, dated 2014).
Read-outs that look alike come from different tables or passages of the source. Each block holds one compound with its values, some of them ahead of it.

Legend:
[1] = target: T1, human recombinant adrenergic α2B receptor (Homo sapiens, UniProt P18089); assay: Radioligand binding, adrenergic α2B ([3H]Rauwolscine)
T1 construct: expressed in transfected cells; host or cells: CHO-K1
T1 sequence (P18089 1-450): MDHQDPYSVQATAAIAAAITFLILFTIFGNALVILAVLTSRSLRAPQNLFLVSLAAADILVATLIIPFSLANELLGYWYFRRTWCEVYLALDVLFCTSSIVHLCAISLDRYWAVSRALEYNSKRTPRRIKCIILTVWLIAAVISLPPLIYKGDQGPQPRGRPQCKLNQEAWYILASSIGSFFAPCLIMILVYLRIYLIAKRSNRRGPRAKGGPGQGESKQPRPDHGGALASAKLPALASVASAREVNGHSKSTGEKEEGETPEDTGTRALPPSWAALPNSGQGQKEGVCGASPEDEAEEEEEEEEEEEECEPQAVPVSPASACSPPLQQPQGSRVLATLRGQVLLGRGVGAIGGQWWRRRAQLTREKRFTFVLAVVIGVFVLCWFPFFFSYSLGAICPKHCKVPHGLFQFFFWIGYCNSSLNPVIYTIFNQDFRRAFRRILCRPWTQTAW
Summary of the method: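 Membranes from CHO-K1 cells expressing human recombinant α2B, in 50 mM Tris-HCl pH 7.4, 12.5 mM MgCl2, 1 mM EDTA, 0.2% BSA, incubated with compound and 2.5 nM [3H]Rauwolscine, 60 min, 25 °C.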

[2] = target: T2, human recombinant adrenergic α2A receptor (Homo sapiens, UniProt P08913); assay: Radioligand binding, adrenergic α2A ([3H]MK-912)
T2 construct: expressed in transfected cells; host or cells: insect Sf9 cells
T2 sequence (P08913 1-465): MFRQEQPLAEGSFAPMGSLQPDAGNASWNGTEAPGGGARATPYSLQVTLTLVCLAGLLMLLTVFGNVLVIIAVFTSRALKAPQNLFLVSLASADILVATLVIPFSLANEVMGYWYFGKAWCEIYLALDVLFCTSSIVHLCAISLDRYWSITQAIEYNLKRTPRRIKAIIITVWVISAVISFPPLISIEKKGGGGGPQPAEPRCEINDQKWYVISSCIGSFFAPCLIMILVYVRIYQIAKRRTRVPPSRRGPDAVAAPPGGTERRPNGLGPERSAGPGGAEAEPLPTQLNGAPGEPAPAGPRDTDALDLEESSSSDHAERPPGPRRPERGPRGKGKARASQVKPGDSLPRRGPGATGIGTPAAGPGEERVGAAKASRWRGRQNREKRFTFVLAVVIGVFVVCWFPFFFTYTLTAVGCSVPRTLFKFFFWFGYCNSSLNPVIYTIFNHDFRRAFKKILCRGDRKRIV
Summary of the method: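 Sf9 membranes, 1 nM [3H]MK-912, 60 min, 25 °C, Tris-HCl pH 7.4/MgCl2/EDTA buffer. NSB: 10 μM WB-4101. Filtration, counting; % inhibition of specific binding.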

[3] = target: T3, rat adrenergic α1B receptor (Rattus norvegicus, UniProt P15823); assay: Radioligand binding, adrenergic α1B ([3H]Prazosin); settings: for Percentage inhibition of ligand binding, Adrenergic α1B / Percentage inhibition of ligand binding, Adrenergic α1B (0.1 μM): 0.1 µM
T3 construct: rat adrenergic α1B receptor obtained from Wistar Rat liver; from tissue; host or cells: Wistar rat liver
T3 sequence (P15823 1-515): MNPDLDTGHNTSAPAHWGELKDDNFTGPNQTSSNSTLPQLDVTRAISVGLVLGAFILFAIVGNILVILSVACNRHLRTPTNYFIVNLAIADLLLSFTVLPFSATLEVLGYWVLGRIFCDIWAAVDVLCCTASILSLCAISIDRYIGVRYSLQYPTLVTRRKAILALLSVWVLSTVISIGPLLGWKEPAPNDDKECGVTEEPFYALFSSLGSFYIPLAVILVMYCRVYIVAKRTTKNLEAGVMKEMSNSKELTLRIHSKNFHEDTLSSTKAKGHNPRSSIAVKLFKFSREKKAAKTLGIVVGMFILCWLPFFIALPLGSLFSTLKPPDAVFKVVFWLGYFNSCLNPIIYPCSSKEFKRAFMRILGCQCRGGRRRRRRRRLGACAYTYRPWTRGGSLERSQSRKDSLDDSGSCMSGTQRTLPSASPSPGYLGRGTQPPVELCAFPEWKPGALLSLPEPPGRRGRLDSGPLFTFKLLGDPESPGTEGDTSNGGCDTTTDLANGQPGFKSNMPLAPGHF
Summary of the method: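 Rat α1B receptor from Wistar rat liver was incubated with 0.25 nM [3H]prazosin for 60 min at 25 °C in 50 mM Tris-HCl, pH 7.4, 0.5 mM EDTA. Non-specific binding was defined with 10 μM phentolamine. Bound radioligand was measured by filtration and counting, reported as percent inhibition of specific binding.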

[4] = compound at 0.03 μM, [3H]Rauwolscine, repeat assays, each datapoint shown, read-out: Percentage inhibition of ligand binding, Adrenergic α2B
[5] = compound at 0.1 μM, [3H]MK-912, repeat assays, each datapoint shown, read-out: Percentage inhibition of ligand binding, Adrenergic α2A
[6] = read-out: Percentage inhibition of ligand binding, Adrenergic α2B (0.03 μM), compound at 0.03 μM, [3H]Rauwolscine, repeat datapoints each shown
[7] = read-out: Percentage inhibition of ligand binding, Adrenergic α2A (0.1 μM), compound at 0.1 μM, [3H]MK-912, repeat datapoints each shown
[8] = read-out: Percentage inhibition of ligand binding, Adrenergic α1B (0.1 μM), compound at 0.1 μM, [3H]Prazosin, repeat datapoints each shown
[9] = compound at 0.03 μM, [3H]Rauwolscine, repeat assays, each datapoint shown, 0.03 µM
[10] = compound at 0.1 μM, [3H]MK-912, repeat assays, each datapoint shown, 0.1 µM
[11] = compound at 0.1 μM, [3H]Prazosin, repeat assays, each datapoint shown
[12] = 0.03 μM compound, read-out: Percentage inhibition of ligand binding, Adrenergic α2B
[13] = 0.1 μM compound, read-out: Percentage inhibition of ligand binding, Adrenergic α2A
[14] = 0.1 μM compound, read-out: Percentage inhibition of ligand binding, Adrenergic α1B
[15] = compound at 0.1 μM, [3H]Prazosin, repeat datapoints each shown

Structure (SMILES): Cc1cccc2c3c(n(CC(O)c4ccncc4)c12)CCN(C)C3 (stereo not drawn) [compound 82, 2-(2,6-dimethyl-1,2,3,4-tetrahydro-pyrido[4,3-b]indol-5-yl)-1-pyridin-4-yl-ethanol]
- inhibition at 0.03 µM [1, 4]: 79%
- inhibition at 0.1 µM [2, 5]: 5%
- inhibition at 0.1 µM ([3]; compound at 0.1 μM, [3H]Prazosin, repeat assays, each datapoint shown, read-out: Percentage inhibition of ligand binding, Adrenergic α1B): 16%

Structure (SMILES): Cc1ccc2c(c1)c1c(n2CC(O)c2ccncc2)CC2CCCCN2C1 (racemic) [75b]
- Percentage inhibition of ligand binding, Adrenergic α2B [1, 9]: 43%
- Percentage inhibition of ligand binding, Adrenergic α2A [2, 10]: 5%
- Percentage inhibition of ligand binding, Adrenergic α1B [3, 11]: 16%

Structure (SMILES): Cc1ccc2c(c1)c1c(n2CC(C)(O)c2ccc[n+]([O-])c2)CCN(C)C1 (single isomer, unassigned) [56a]
- inhibition at 0.03 µM [1, 4]: 20%
- inhibition at 0.1 µM [2, 5]: 11%
- Percentage inhibition of ligand binding, Adrenergic α1B [3, 11]: 1%

Structure (SMILES): Cc1ccc2c(c1)c1c(n2CC(C)(O)c2ccc(C)nc2)CCN(C)C1 (stereo not drawn) [29b]
- inhibition at 0.03 µM [1, 4]: 46%
- Percentage inhibition of ligand binding, Adrenergic α2A ([2]; compound at 0.1 μM, [3H]MK-912, repeat assays, each datapoint shown): 10%
- Percentage inhibition of ligand binding, Adrenergic α1B [3, 11]: 14%

Structure (SMILES): Cc1ccc2c(c1)c1c(n2CC(O)c2ccncc2)CCN2CCCCC12 (single isomer, unassigned) [47b]
- Percentage inhibition of ligand binding, Adrenergic α2B [1, 9]: 119%
- Percentage inhibition of ligand binding, Adrenergic α2A [2, 10]: 41%
- Percentage inhibition of ligand binding, Adrenergic α1B [3, 11]: 70%

Structure (SMILES): CN1CCc2c(c3cc(C(C)(C)O)ccc3n2CC(O)c2ccncc2)C1 (single isomer, unassigned) [23b, 2-(2,3,4,5-tetrahydro-5-(2-hydroxy-2-(pyridin-4-yl)ethyl)-2-methyl-1H-pyrido[4,3-b]indol-8-yl)propan-2-ol]
- Percentage inhibition of ligand binding, Adrenergic α2B [1, 9]: −3%
- Percentage inhibition of ligand binding, Adrenergic α2A [2, 10]: 1%
- Percentage inhibition of ligand binding, Adrenergic α1B [3, 11]: 4%

Further lines, results first:

- Percentage inhibition of ligand binding, Adrenergic α2B ([1]; 0.03 μM compound, 0.03 µM): 89%
- Percentage inhibition of ligand binding, Adrenergic α2A ([2]; 0.1 μM compound, 0.1 µM): 25%
- Percentage inhibition of ligand binding, Adrenergic α1B ([3]; 0.1 μM compound): 26%
Structure (SMILES): CNC(Cn1c2c(c3cc(C)ccc31)CN(C)CC2)c1ccc(F)cc1 (single isomer, unassigned) [II-12a, 2-(2,8-dimethyl-3,4-dihydro-1H-pyrido[4,3-b]indol-5(2H)-yl)-1-(4-fluorophenyl)-N-methyl ethanamine]

- inhibition at 0.03 µM [1, 6]: 5%
- inhibition at 0.1 µM [2, 7]: 88%
- inhibition at 0.1 µM [3, 8]: 4%
Structure (SMILES): Cc1ccc(CCn2c3c(c4c(Cl)ccc(F)c42)CN(C)CC3)cn1 [II-248, 9-chloro-6-fluoro-2,3,4,5-tetrahydro-2-methyl-5-(2-(6-methylpyridin-3-yl)ethyl)-1H-pyrido[4,3-b]indole]

- Percentage inhibition of ligand binding, Adrenergic α2B ([1]; 0.03 μM compound, 0.03 µM): 32%
- Percentage inhibition of ligand binding, Adrenergic α2A ([2]; 0.1 μM compound, 0.1 µM): 1%
- Percentage inhibition of ligand binding, Adrenergic α1B ([3]; 0.1 μM compound): −7%
Structure (SMILES): CC(=O)NC(Cn1c2c(c3cc(C)ccc31)CN(C)CC2)c1ccncc1 (single isomer, unassigned) [II-1b, N-(2-(1,2,3,4-tetrahydro-2,8-dimethylpyrido[4,3-b]indol-5-yl)-1-(pyridin-4-yl)ethyl)acetamide]

- inhibition at 0.03 µM [1, 12]: 33%
- inhibition at 0.1 µM [2, 13]: 28%
- inhibition at 0.1 µM [3, 14]: 34%
Structure (SMILES): Cc1ccc2c(c1)c1c(n2CC(O)c2ccncc2)C(C)N(C)CC1 (stereo not drawn) [II-73]

- Percentage inhibition of ligand binding, Adrenergic α2B (0.03 μM) ([1]; compound at 0.03 μM, [3H]Rauwolscine, repeat datapoints each shown, 0.03 µM): 94%
- Percentage inhibition of ligand binding, Adrenergic α2A (0.1 μM) ([2]; compound at 0.1 μM, [3H]MK-912, repeat datapoints each shown, 0.1 µM): 24%
- Percentage inhibition of ligand binding, Adrenergic α1B (0.1 μM) [3, 15]: 20%
Structure (SMILES): Cc1ccc2c(c1)c1c(n2CC(CC(O)C(C)(C)C)c2ccncc2)CCN(C)C1 (single isomer, unassigned) [II-227c, 6-(2,8-dimethyl-1,2,3,4-tetrahydro-pyrido[4,3-b]indol-5-yl)-2,2-dimethyl-5-pyridin-4-yl-hexan-3-ol]

- inhibition at 0.03 µM [1, 6]: 36%
- inhibition at 0.1 µM [2, 7]: 7%
- Percentage inhibition of ligand binding, Adrenergic α1B (0.1 μM) [3, 15]: 60%
Structure (SMILES): Cc1ccc2c(c1)c1c(n2CC(C)(O)c2ccc(C(N)=O)nc2)CCN(C)C1 (single isomer, unassigned) [II-136a, 5-(1-(1,2,3,4-tetrahydro-2,8-dimethylpyrido[4,3-b]indol-5-yl)-2-hydroxypropan-2-yl)pyridine-2-carboxamide]

- inhibition at 0.03 µM [1, 12]: 35%
- inhibition at 0.1 µM [2, 13]: 27%
- inhibition at 0.1 µM [3, 14]: 44%
Structure (SMILES): OC(Cn1c2c(c3cc(Cl)cnc31)CN1CCCC1C2)c1ccncc1 (stereo not drawn) [II-86]

- inhibition at 0.03 µM [1, 6]: 16%
- inhibition at 0.1 µM [2, 7]: 54%
- inhibition at 0.1 µM [3, 8]: 9%
Structure (SMILES): Cc1ccc(CCn2c3c(c4c(F)ccc(Cl)c42)CN(C)CC3)cn1 [II-253]

- inhibition at 0.03 µM [1, 6]: 99%
- inhibition at 0.1 µM [2, 7]: 26%
- inhibition at 0.1 µM [3, 8]: 19%
Structure (SMILES): Cc1ccc2c(c1)c1c(n2CC(CC(=O)C(C)(C)C)c2ccncc2)CCN(C)C1 (stereo not drawn) [II-222, 6-(2,8-dimethyl-1,2,3,4-tetrahydro-pyrido[4,3-b]indol-5-yl)-2,2-dimethyl-5-pyridin-4-yl-hexan-3-one]

- inhibition at 0.03 µM [1, 6]: -1%
- inhibition at 0.1 µM [2, 7]: -1%
- inhibition at 0.1 µM [3, 8]: 5%
Structure (SMILES): CN1CCc2c(c3ncccc3n2CC(O)c2ccncc2)C1 (stereo not drawn) [II-241]

- inhibition at 0.03 µM [1, 12]: 35%
- inhibition at 0.1 µM [2, 13]: -5%
- inhibition at 0.1 µM [3, 14]: 13%
Structure (SMILES): OC(Cn1c2c(c3cc(Cl)ccc31)CNCC2)c1cccnc1 (stereo not drawn) [II-89, 2-(8-chloro-1,2,3,4-tetrahydro-pyrido[4,3-b]indol-5-yl)-1-pyridin-3-yl-ethanol]

- inhibition at 0.03 µM [1, 6]: 22%
- inhibition at 0.1 µM [2, 7]: -3%
- inhibition at 0.1 µM [3, 8]: 13%
Structure (SMILES): Cc1ccc2c(c1)c1c(n2CC(C)(O)c2ccc[nH]c2=O)CCN(C)C1 (stereo not drawn) [II-143, 3-(1-(1,2,3,4-tetrahydro-2,8-dimethylpyrido[4,3-b]indol-5-yl)-2-hydroxypropan-2-yl)pyridin-2(1H)-one]

- Percentage inhibition of ligand binding, Adrenergic α2B ([1]; 0.03 μM compound, 0.03 µM): 50%
- Percentage inhibition of ligand binding, Adrenergic α2A ([2]; 0.1 μM compound, 0.1 µM): 18%
- Percentage inhibition of ligand binding, Adrenergic α1B ([3]; 0.1 μM compound): 69%
Structure (SMILES): Cc1ccc2c(c1)c1c(n2CC(O)c2ccccc2F)CN(C)CC1 (single isomer, unassigned) [II-49b, 2-(2,6-dimethyl-3,4-dihydro-1H-pyrido[3,4-b]indol-9(2H)-yl)-1-(2-fluorophenyl)ethanol]
